# Measurements from ChEMBL document CHEMBL1221353, “Synthesis and evaluation of amides surrogates of dopamine D3 receptor ligands” (Bioorg Med Chem Lett, 2010).
# Tested on: Mus musculus
# Assay: Absolute bioavailability in mouse plasma at 10 mg/kg dose po and iv
# Type: ADME, organism-based
# Conditions: in vivo
row,bioavailability,Compound
1,0.4,FC(F)(F)c1cccc(N2CCN(CCCCNc3cc(-c4ccccc4)ccn3)CC2)c1

# Species: Homo sapiens
# Assay: Selectivity ratio of Ki for human adrenergic alpha1A receptor to Ki for human dopamine D3 receptor
# Conditions: not given
row,Ratio Ki,Compound
1,3,Cc1cccc(N2CCN(CCCCNc3ccccn3)CC2)c1C
2,7.5,FC(F)(F)c1cccc(N2CCN(CCCCNc3ccc4ccccc4n3)CC2)c1
3,0.4,Cc1ccccc1N1CCN(CCCCNc2ccccn2)CC1
4,68,FC(F)(F)c1cccc(N2CCN(CCCCNc3nccc4ccccc34)CC2)c1
5,6.3,COc1ccccc1N1CCN(CCCCNc2nccc3ccccc23)CC1
6,1.5,Fc1ccccc1N1CCN(CCCCNc2ccccn2)CC1
7,35,Clc1cccc(N2CCN(CCCCNc3ccc(-c4ccccc4)cn3)CC2)c1Cl
8,29,COc1ccccc1N1CCN(CCCCNc2ccccn2)CC1
9,106,Clc1cccc(N2CCN(CCCCNc3cc(-c4ccccc4)ccn3)CC2)c1Cl
10,207,FC(F)(F)c1cccc(N2CCN(CCCCNc3ccc(-c4ccccc4)cn3)CC2)c1
11,77,Clc1cccc(N2CCN(CCCCNc3ccc4ccccc4n3)CC2)c1Cl
12,5.4,FC(F)(F)c1cccc(N2CCN(CCCCNc3nc(-c4ccccc4)cs3)CC2)c1
13,4,Fc1ccccc1N1CCN(CCCCNc2ccc(-c3ccccc3)cn2)CC1
14,6,Fc1ccccc1N1CCN(CCCCNc2cc(-c3ccccc3)ccn2)CC1
15,35,FC(F)(F)c1cccc(N2CCN(CCCCNc3ccccn3)CC2)c1
16,157,FC(F)(F)c1cccc(N2CCN(CCCCNc3cc(-c4ccccc4)ccn3)CC2)c1
17,28,FC(F)(F)c1cccc(N2CCN(CCCCNc3ncc(-c4ccccc4)o3)CC2)c1

# Species: Homo sapiens
# Assay: Selectivity ratio of Ki for human dopamine D2S receptor to Ki for human dopamine D3 receptor
# Conditions: not given
row,Ratio Ki,Compound
1,17,Cc1cccc(N2CCN(CCCCNc3ccccn3)CC2)c1C
2,33,FC(F)(F)c1cccc(N2CCN(CCCCNc3ccc4ccccc4n3)CC2)c1
3,12,Cc1ccccc1N1CCN(CCCCNc2ccccn2)CC1
4,58,FC(F)(F)c1cccc(N2CCN(CCCCNc3nccc4ccccc34)CC2)c1
5,70,COc1ccccc1N1CCN(CCCCNc2nccc3ccccc23)CC1
6,12,Fc1ccccc1N1CCN(CCCCNc2ccccn2)CC1
7,69,Clc1cccc(N2CCN(CCCCNc3ccc(-c4ccccc4)cn3)CC2)c1Cl
8,247,COc1ccccc1N1CCN(CCCCNc2ccccn2)CC1
9,334,Clc1cccc(N2CCN(CCCCNc3cc(-c4ccccc4)ccn3)CC2)c1Cl
10,130,FC(F)(F)c1cccc(N2CCN(CCCCNc3ccc(-c4ccccc4)cn3)CC2)c1
11,39,Clc1cccc(N2CCN(CCCCNc3ccc4ccccc4n3)CC2)c1Cl
12,183,FC(F)(F)c1cccc(N2CCN(CCCCNc3nc(-c4ccccc4)cs3)CC2)c1
13,49,Fc1ccccc1N1CCN(CCCCNc2ccc(-c3ccccc3)cn2)CC1
14,206,Fc1ccccc1N1CCN(CCCCNc2cc(-c3ccccc3)ccn2)CC1
15,12,FC(F)(F)c1cccc(N2CCN(CCCCNc3ccccn3)CC2)c1
16,256,FC(F)(F)c1cccc(N2CCN(CCCCNc3cc(-c4ccccc4)ccn3)CC2)c1
17,242,FC(F)(F)c1cccc(N2CCN(CCCCNc3ncc(-c4ccccc4)o3)CC2)c1

# Tested on: Rattus norvegicus
# Assay: Absolute bioavailability in rat plasma at 10 mg/kg, po and 3 mg/kg, iv
# Type: ADME, organism-based
# Conditions: in vivo
row,bioavailability,Compound
1,0.65,FC(F)(F)c1cccc(N2CCN(CCCCNc3cc(-c4ccccc4)ccn3)CC2)c1

# Target: D(3) dopamine receptor (Homo sapiens, UniProt P35462)
# Sequence (P35462 whole entry): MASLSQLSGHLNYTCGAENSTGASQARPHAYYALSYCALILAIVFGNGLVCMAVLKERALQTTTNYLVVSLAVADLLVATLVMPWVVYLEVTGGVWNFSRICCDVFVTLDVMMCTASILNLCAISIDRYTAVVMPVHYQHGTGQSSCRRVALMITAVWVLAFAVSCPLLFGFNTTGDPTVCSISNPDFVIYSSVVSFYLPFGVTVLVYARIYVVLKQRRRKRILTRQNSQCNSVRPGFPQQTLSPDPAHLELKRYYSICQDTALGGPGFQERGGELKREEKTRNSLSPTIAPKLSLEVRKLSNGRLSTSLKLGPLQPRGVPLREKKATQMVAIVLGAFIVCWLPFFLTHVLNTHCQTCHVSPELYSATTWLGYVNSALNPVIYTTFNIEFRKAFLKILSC
# Assay: biochemical
# Conditions: not given
row,Ki,Compound
1,12 nM,Cc1cccc(N2CCN(CCCCNc3ccccn3)CC2)c1C
2,1.6 nM,FC(F)(F)c1cccc(N2CCN(CCCCNc3ccc4ccccc4n3)CC2)c1
3,32 nM,Cc1ccccc1N1CCN(CCCCNc2ccccn2)CC1
4,1 nM,FC(F)(F)c1cccc(N2CCN(CCCCNc3nccc4ccccc34)CC2)c1
5,1 nM,COc1ccccc1N1CCN(CCCCNc2nccc3ccccc23)CC1
6,11 nM,Fc1ccccc1N1CCN(CCCCNc2ccccn2)CC1
7,0.59 nM,Clc1cccc(N2CCN(CCCCNc3ccc(-c4ccccc4)cn3)CC2)c1Cl
8,0.8 nM,COc1ccccc1N1CCN(CCCCNc2ccccn2)CC1
9,1.1 nM,FC(F)(F)c1cccc(N2CCN(CCCCNc3ccc(-c4ccccc4)cn3)CC2)c1
10,0.6 nM,Clc1cccc(N2CCN(CCCCNc3ccc4ccccc4n3)CC2)c1Cl
11,13 nM,FC(F)(F)c1cccc(N2CCN(CCCCNc3nc(-c4ccccc4)cs3)CC2)c1
12,2.5 nM,Fc1ccccc1N1CCN(CCCCNc2ccc(-c3ccccc3)cn2)CC1
13,1.5 nM,Fc1ccccc1N1CCN(CCCCNc2cc(-c3ccccc3)ccn2)CC1
14,17 nM,FC(F)(F)c1cccc(N2CCN(CCCCNc3ccccn3)CC2)c1
15,9.6 nM,FC(F)(F)c1cccc(N2CCN(CCCCNc3ncc(-c4ccccc4)o3)CC2)c1

# Target: T1, Alpha-1A adrenergic receptor (Homo sapiens, UniProt P35348)
# T1 sequence (P35348 whole entry): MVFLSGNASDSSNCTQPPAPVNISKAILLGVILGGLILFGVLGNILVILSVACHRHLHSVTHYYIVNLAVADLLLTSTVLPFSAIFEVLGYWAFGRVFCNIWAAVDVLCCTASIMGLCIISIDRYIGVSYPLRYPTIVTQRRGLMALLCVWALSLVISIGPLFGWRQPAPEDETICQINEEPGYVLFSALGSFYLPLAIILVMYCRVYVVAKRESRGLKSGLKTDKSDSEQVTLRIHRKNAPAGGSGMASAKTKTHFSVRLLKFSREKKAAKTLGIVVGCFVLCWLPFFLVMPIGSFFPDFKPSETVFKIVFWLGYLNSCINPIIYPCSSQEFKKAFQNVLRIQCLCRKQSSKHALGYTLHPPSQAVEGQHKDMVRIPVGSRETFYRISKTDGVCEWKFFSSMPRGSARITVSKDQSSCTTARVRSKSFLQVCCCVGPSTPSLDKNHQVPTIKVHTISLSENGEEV
# Assay: Displacement of [3H]prazosin from human adrenergic alpha1A receptor
# Conditions: not given
row,Ki,Compound
1,40 nM,Cc1cccc(N2CCN(CCCCNc3ccccn3)CC2)c1C
2,12 nM,FC(F)(F)c1cccc(N2CCN(CCCCNc3ccc4ccccc4n3)CC2)c1
3,14 nM,Cc1ccccc1N1CCN(CCCCNc2ccccn2)CC1
4,68 nM,FC(F)(F)c1cccc(N2CCN(CCCCNc3nccc4ccccc34)CC2)c1
5,6 nM,COc1ccccc1N1CCN(CCCCNc2nccc3ccccc23)CC1
6,17 nM,Fc1ccccc1N1CCN(CCCCNc2ccccn2)CC1
7,21 nM,Clc1cccc(N2CCN(CCCCNc3ccc(-c4ccccc4)cn3)CC2)c1Cl
8,23 nM,COc1ccccc1N1CCN(CCCCNc2ccccn2)CC1
9,58 nM,Clc1cccc(N2CCN(CCCCNc3cc(-c4ccccc4)ccn3)CC2)c1Cl
10,227 nM,FC(F)(F)c1cccc(N2CCN(CCCCNc3ccc(-c4ccccc4)cn3)CC2)c1
11,6 nM,COc1ccccc1N1CCN(CCCCNc2ccc3ccccc3n2)CC1
12,46 nM,Clc1cccc(N2CCN(CCCCNc3ccc4ccccc4n3)CC2)c1Cl
13,72 nM,FC(F)(F)c1cccc(N2CCN(CCCCNc3nc(-c4ccccc4)cs3)CC2)c1
14,10 nM,Fc1ccccc1N1CCN(CCCCNc2ccc(-c3ccccc3)cn2)CC1
15,9 nM,Fc1ccccc1N1CCN(CCCCNc2cc(-c3ccccc3)ccn2)CC1
16,60 nM,Clc1cccc(N2CCN(CCCCNc3nccc4ccccc34)CC2)c1Cl
17,593 nM,FC(F)(F)c1cccc(N2CCN(CCCCNc3ccccn3)CC2)c1
18,119 nM,FC(F)(F)c1cccc(N2CCN(CCCCNc3cc(-c4ccccc4)ccn3)CC2)c1
19,272 nM,FC(F)(F)c1cccc(N2CCN(CCCCNc3ncc(-c4ccccc4)o3)CC2)c1
20,33 nM,Clc1cccc(N2CCN(CCCCNc3ccccn3)CC2)c1Cl

# Target: D(2) dopamine receptor (Homo sapiens, UniProt P14416)
# Sequence (P14416 whole entry): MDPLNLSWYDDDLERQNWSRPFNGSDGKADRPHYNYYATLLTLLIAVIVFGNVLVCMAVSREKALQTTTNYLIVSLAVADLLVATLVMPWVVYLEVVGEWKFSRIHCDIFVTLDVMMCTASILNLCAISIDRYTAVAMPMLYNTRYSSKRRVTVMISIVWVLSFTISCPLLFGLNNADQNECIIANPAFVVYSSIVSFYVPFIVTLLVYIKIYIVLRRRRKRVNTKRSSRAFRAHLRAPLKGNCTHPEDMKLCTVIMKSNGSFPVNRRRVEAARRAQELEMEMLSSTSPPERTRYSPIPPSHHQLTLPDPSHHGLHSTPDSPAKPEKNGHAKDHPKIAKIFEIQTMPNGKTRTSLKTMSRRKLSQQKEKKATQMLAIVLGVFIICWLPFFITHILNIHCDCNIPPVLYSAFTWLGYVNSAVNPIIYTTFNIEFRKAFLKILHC
# Assay: Displacement of [3H]spiperone from human dopamine D2S receptor expressed in HEK293 cells
# Type: cell-based
# Conditions: not given
row,Ki,Compound
1,207 nM,Cc1cccc(N2CCN(CCCCNc3ccccn3)CC2)c1C
2,53 nM,FC(F)(F)c1cccc(N2CCN(CCCCNc3ccc4ccccc4n3)CC2)c1
3,383 nM,Cc1ccccc1N1CCN(CCCCNc2ccccn2)CC1
4,58 nM,FC(F)(F)c1cccc(N2CCN(CCCCNc3nccc4ccccc34)CC2)c1
5,70 nM,COc1ccccc1N1CCN(CCCCNc2nccc3ccccc23)CC1
6,133 nM,Fc1ccccc1N1CCN(CCCCNc2ccccn2)CC1
7,41 nM,Clc1cccc(N2CCN(CCCCNc3ccc(-c4ccccc4)cn3)CC2)c1Cl
8,198 nM,COc1ccccc1N1CCN(CCCCNc2ccccn2)CC1
9,184 nM,Clc1cccc(N2CCN(CCCCNc3cc(-c4ccccc4)ccn3)CC2)c1Cl
10,143 nM,FC(F)(F)c1cccc(N2CCN(CCCCNc3ccc(-c4ccccc4)cn3)CC2)c1
11,23 nM,Clc1cccc(N2CCN(CCCCNc3ccc4ccccc4n3)CC2)c1Cl
12,2430 nM,FC(F)(F)c1cccc(N2CCN(CCCCNc3nc(-c4ccccc4)cs3)CC2)c1
13,122 nM,Fc1ccccc1N1CCN(CCCCNc2ccc(-c3ccccc3)cn2)CC1
14,309 nM,Fc1ccccc1N1CCN(CCCCNc2cc(-c3ccccc3)ccn2)CC1
15,198 nM,FC(F)(F)c1cccc(N2CCN(CCCCNc3ccccn3)CC2)c1
16,194 nM,FC(F)(F)c1cccc(N2CCN(CCCCNc3cc(-c4ccccc4)ccn3)CC2)c1
17,2320 nM,FC(F)(F)c1cccc(N2CCN(CCCCNc3ncc(-c4ccccc4)o3)CC2)c1
